Earlier results, collected in paper PMC5344293, “A phase 1 dose-escalation and expansion study of binimetinib (MEK162), a potent and selective oral MEK1/2 inhibitor” (British Journal of Cancer, 2017).
Like-named read-outs stand apart in the source and are kept apart here.

Key:
[1] = tested on: non-melanoma tumours; design: method as in Rosen et al, 2011; settings: ref Rosen et al, 2011; cited from earlier work
[2] = tested on: non-melanoma tumours; design: method as in Delord et al, 2010; settings: ref Delord et al, 2010; cited from earlier work
[3] = tested on: metastatic biliary cancer; design: method as in Bekaii-Saab et al, 2011; settings: ref Bekaii-Saab et al, 2011; cited from earlier work
[4] = tested on: non-melanoma tumours; design: method as in Adjei et al, 2008; settings: ref Adjei et al, 2008; cited from earlier work
[5] = tested on: advanced solid tumours; design: method as in Infante et al, 2012; settings: ref Infante et al, 2012, cited from earlier work

O=C(c1ccc(F)c(F)c1Nc1ccc(I)cc1F)N1CC(O)([C@@H]2CCCCN2)C1 [cobimetinib]
Objective responses to single-agent treatment in non-melanoma patients [1]: no objective responses

O=C(NC[C@H](O)CO)c1ccncc1Nc1ccc(I)cc1F [pimasertib]
Objective responses to single-agent treatment in non-melanoma patients [2]: no objective responses

Cn1cnc2c(F)c(Nc3ccc(Br)cc3Cl)c(C(=O)NOCCO)cc21 [selumetinib]
Objective response, patients [3]: 12% | Objective responses to single-agent treatment in non-melanoma patients [4]: no objective responses

CC(=O)Nc1cccc(-n2c(=O)n(C3CC3)c(=O)c3c(Nc4ccc(I)cc4F)n(C)c(=O)c(C)c32)c1 [trametinib]
Non-melanoma patients with objective responses ([5]; NSCLC and pancreas cancer (2 patients each)): 4 patients | Patients with objective responses ([5]; all tumour types): 21 patients
